Values quoted from earlier work in patent publication US12026655B2, “Systems and methods for post-harvest crop quality management” (priority 2017, dated 2024).
Like-named read-outs stand apart in the source and are kept apart here.

Tests used:
[1] = system: tobacco moth and susceptible cigarette beetle
[2] = system: resistant cigarette beetle
Rhyzopertha dominica = conditions: e(x, t)>1 means at least 99.9% of the insect population killed
[3] = tobacco temperature 16-20 °C (61-68 °F), 300 ppm phosphine at the bale/case centre

P [phosphine]
Minimum Exposure Time to achieve 100% control of all development stages [1, 3]: 6 days
Minimum Exposure Time to achieve 100% control of all development stages ([1]; tobacco temperature >20 °C (>68 °F), 200 ppm phosphine at the bale/case centre): 4 days
Minimum Exposure Time to achieve 100% control of all development stages [2, 3]: 12 days
Minimum Exposure Time to achieve 100% control of all development stages ([2]; tobacco temperature 20-25 °C (68-77 °F), 300 ppm phosphine at the bale/case centre): 12 days
Minimum Exposure Time to achieve 100% control of all development stages ([2]; tobacco temperature 20-25 °C (68-77 °F), 700 ppm phosphine at the bale/case centre): 10 days
Minimum Exposure Time to achieve 100% control of all development stages ([2]; tobacco temperature >25 °C (>77 °F), 300 ppm phosphine at the bale/case centre): 12 days
Minimum Exposure Time to achieve 100% control of all development stages ([2]; tobacco temperature >25 °C (>77 °F), 600 ppm phosphine at the bale/case centre): 6 days
empirical constant a1 of the extinction indicator function e(x, t) (Rhyzopertha dominica): 4.04
empirical constant a2 of the extinction indicator function e(x, t) (Rhyzopertha dominica): 0.6105
